Patent US8366962B2, “Polymerizable liquid crystal compounds having oxiranyl group, polymerizable liquid crystal compositions and polymers” (JNC Corporation, priority 2009, dated 2013)

Assay: Solubility in PGMEA/MMP: deposition of crystals when the solution is allowed to stand at room temperature
Format: physicochemical
Conditions: 70/30 by weight mixture with compound (M1-19-1), 30% by weight solution in PGMEA/MMP=9/1 by volume
Source text: Incidentally, PGMEA and MMP stand for propylene glycol […] ether acetate and methyl 3-methoxypropionate, respectively.

time allowed to stand without deposition of crystals: more than 3 days
Structure (SMILES): Cc1cc(OC(=O)c2ccc(OCCCCOCC3(C)CO3)cc2)ccc1OC(=O)c1ccc(OCCCCOCC2(C)CO2)cc1 (stereo not shown) [Compound (1-1-14)]
